Non-standard residues stand in square brackets, D forms with d. Residues, ends and D or L forms follow the SMILES beside them. *: point of attachment. Hexenoyl(2E,4S-Me) = CC[C@H](C)/C=C/C(=O)*; Leu(3R-OH) = CC(C)[C@@H](O)[C@H](N)C(=O)O; NH((S)CH(Me)CH2NMe2) = C[C@@H](CN(C)C)N*; Pro(4S-Me) = C[C@@H]1CN[C@H](C(=O)O)C1; Gly(octyl) = CCCCCCCC[C@H](N)C(=O)O; Benzoyl(4-F) = O=C(c1ccc(F)cc1)*; hCha = N[C@@H](CCC1CCCCC1)C(=O)O; Nva(5-OH) = N[C@@H](CCCO)C(=O)O; X17 = C[C@@H](CN1CCOCC1)N*; Hexanoyl = CCCCCC(=O)*; Aib = CC(C)(N)C(=O)O; X12 = CCC/C=C/C(=O)*; βAla = NCCC(=O)O
What was measured:
[1] = system: Trypanosoma brucei rhodesiense (STIB 900 strain); experiment: Alamar Blue assay against Trypanosoma brucei rhodesiense grown in axenic medium; format: cell-based; details: In vitro inhibition, read-out: T.b.rhod.
Method in brief: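 Alamar Blue-based IC50 determination, in triplicate, on axenically grown STIB 900 trypanosomes. Melarsoprol included as reference.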

[2] = system: Trypanosoma cruzi trypomastigote forms (Tulahuen strain); experiment: Intracellular Trypanosoma cruzi assay in L6-cells, beta-galactosidase/CPRG readout; format: cell-based; details: In vitro inhibition, read-out: T.cruzi.
Method in brief: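 Readout was β-galactosidase cleavage of CPRG, read photometrically at 540 nm after 2–6 h colour development, giving IC50 values. Parasites: LacZ-expressing Tulahuen C2C4 strain grown in rat L6 myoblasts; run in triplicate.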

[3] = system: Axenically grown Leishmania donovani amastigotes (strain MHOM/ET/67/L82); experiment: Axenic Leishmania donovani amastigote resazurin assay; format: cell-based; details: In vitro inhibition, read-out: L.don. ax
Method in brief: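 IC50 values derive from resazurin fluorescence (ex 536 nm, em 588 nm), expressed relative to the negative control, after 2-4 hours of plate development. Axenic amastigotes of strain MHOM/ET/67/L82 were used; each test run in triplicate.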

[4] = system: intracellular Leishmania donovani (L.don. InMac); experiment: Intracellular Leishmania donovani assay (L.don. InMac); format: cell-based; details: In vitro inhibition
Text: (§1) Tests were done in triplicate.

Plasmodium falciparum = experiment: 3H-hypoxanthine incorporation assay against Plasmodium falciparum; format: cell-based; details: In vitro inhibition, read-out: P.falc NF5
Protocol: as §1
IC50 values were calculated by linear interpolation.

[5] = Cytotoxicity assay on L6-cells (Alamar Blue); details: rat, Cytotox L6, Cytotoxicity against rat myoblast cells (L6)

Compound | IC50 [1] [nM] | IC50 [2] [nM] | IC50 [3] [nM] | IC50 [4] [nM] | IC50 (Plasmodium falciparum) [nM] | IC50 at 70 h [5] [nM]
CCCCCCCC[C@H](NC(=O)[C@@H]1CCCN1C(=O)/C=C/[C@@H](C)CC)C(=O)N[C@H](C(=O)NC(C)(C)C(=O)N[C@@H](CC(C)C)C(=O)N[C@@H](CC(C)C)C(=O)NC(C)(C)C(=O)NC(C)(C)C(=O)NCCC(=O)N[C@@H](C)CN(C)C)[C@H](O)C(C)C [Compound 5488, (2S)-N-[(1S,2R)-1-[(1-{[(1S)-1-{[(1S)-1-{[1-({1-[(2-{[(2S)-1-(dimethylamino)propan-2-yl]carbamoyl}ethyl)carbamoyl]-1-methylethyl}carbamoyl)-1-methylethyl]carbamoyl}-3-methylbutyl]carbamoyl}-3-methylbutyl]carbamoyl}-1-methylethyl)carbamoyl]-2-hydroxy-3-methylbutyl]-2-{[(2S)-1-[(2E,4S)-4-methylhex-2-enoyl]pyrrolidin-2-yl]formamido}decanamide] ({Hexenoyl(2E,4S-Me)}-P[Gly(octyl)][Leu(3R-OH)][Aib]LL[Aib][Aib][βAla]-{NH((S)CH(Me)CH2NMe2)}) | 2 | 33.6 | 0.6 | 20.2 | 2.6 | 666
CCCCCCCC[C@H](NC(=O)[C@@H]1C[C@H](C)CN1C(=O)/C=C/[C@@H](C)CC)C(=O)N[C@H](C(=O)NC(C)(C)C(=O)N[C@@H](CC(C)C)C(=O)N[C@@H](CC(C)C)C(=O)NC(C)(C)C(=O)NC(C)(C)C(=O)NCCC(=O)N[C@@H](C)CN(C)C)[C@H](O)C(C)C [Compound 5492, (2S)-N-[(1S,2R)-1-[(1-{[(1S)-1-{[(1S)-1-{[1-({1-[(2-{[(2S)-1-(dimethylamino)propan-2-yl]carbamoyl}ethyl)carbamoyl]-1-methylethyl}carbamoyl)-1-methylethyl]carbamoyl}-3-methylbutyl]carbamoyl}-3-methylbutyl]carbamoyl}-1-methylethyl)carbamoyl]-2-hydroxy-3-methylbutyl]-2-{[(2S,4S)-4-methyl-1-[(2E,4S)-4-methylhex-2-enoyl]pyrrolidin-2-yl]formamido}decanamide] ({Hexenoyl(2E,4S-Me)}-[Pro(4S-Me)][Gly(octyl)][Leu(3R-OH)][Aib]LL[Aib][Aib][βAla]-{NH((S)CH(Me)CH2NMe2)}) | 5.5 | 113 | 2 | 36.6 | 4.7 | 147
CC[C@H](C)/C=C/C(=O)N1C[C@@H](C)C[C@H]1C(=O)N[C@@H](CCCO)C(=O)N[C@H](C(=O)NC(C)(C)C(=O)N[C@@H](CC(C)C)C(=O)N[C@@H](CC(C)C)C(=O)NC(C)(C)C(=O)NC(C)(C)C(=O)NCCC(=O)N[C@@H](C)CN(C)C)[C@H](O)C(C)C [Compound 5496, (2S,3R)-N-(1-{[(1S)-1-{[(1S)-1-{[1-({1-[(2-{[(2S)-1-(dimethylamino)propan-2-yl]carbamoyl}ethyl)carbamoyl]-1-methylethyl}carbamoyl)-1-methylethyl]carbamoyl}-3-methylbutyl]carbamoyl}-3-methylbutyl]carbamoyl}-1-methylethyl)-3-hydroxy-2-[(2S)-5-hydroxy-2-{[(2S,4S)-4-methyl-1-[(2E,4S)-4-methylhex-2-enoyl]pyrrolidin-2-yl]formamido}pentanamido]-4-methylpentanamide] ({Hexenoyl(2E,4S-Me)}-[Pro(4S-Me)][Nva(5-OH)][Leu(3R-OH)][Aib]LL[Aib][Aib][βAla]-{NH((S)CH(Me)CH2NMe2)}) | 6.2 | 5110 | 467 | 2680 | 660 | 5220
CCC/C=C/C(=O)N1CCC[C@H]1C(=O)N[C@@H](CCCCCCCC)C(=O)N[C@H](C(=O)NC(C)(C)C(=O)N[C@@H](CC(C)C)C(=O)N[C@@H](CC(C)C)C(=O)NC(C)(C)C(=O)NC(C)(C)C(=O)NCCC(=O)N[C@@H](C)CN(C)C)[C@H](O)C(C)C [Compound 5514, (2S)-N-[(1S,2R)-1-[(1-{[(1S)-1-{[(1S)-1-{[1-({1-[(2-{[(2S)-1-(dimethylamino)propan-2-yl]carbamoyl}ethyl)carbamoyl]-1-methylethyl}carbamoyl)-1-methylethyl]carbamoyl}-3-methylbutyl]carbamoyl}-3-methylbutyl]carbamoyl}-1-methylethyl)carbamoyl]-2-hydroxy-3-methylbutyl]-2-{[(2S)-1-[(2E)-hex-2-enoyl]pyrrolidin-2-yl]formamido}decanamide] (X12-P[Gly(octyl)][Leu(3R-OH)][Aib]LL[Aib][Aib][βAla]-{NH((S)CH(Me)CH2NMe2)}) | 0.2 | 20.1 | 0.4 | 96.8 | 0.8 | 316
CCCCCCCC[C@H](NC(=O)[C@@H]1CCCN1C(=O)CCCCC)C(=O)N[C@H](C(=O)NC(C)(C)C(=O)N[C@@H](CC(C)C)C(=O)N[C@@H](CC(C)C)C(=O)NC(C)(C)C(=O)NC(C)(C)C(=O)NCCC(=O)N[C@@H](C)CN(C)C)[C@H](O)C(C)C [Compound 5517, (2S)-N-[(1S,2R)-1-[(1-{[(1S)-1-{[(1S)-1-{[1-({1-[(2-{[(2S)-1-(dimethylamino)propan-2-yl]carbamoyl}ethyl)carbamoyl]-1-methylethyl}carbamoyl)-1-methylethyl]carbamoyl}-3-methylbutyl]carbamoyl}-3-methylbutyl]carbamoyl}-1-methylethyl)carbamoyl]-2-hydroxy-3-methylbutyl]-2-{[(2S)-1-hexanoylpyrrolidin-2-yl]formamido}decanamide] (Hexanoyl-P[Gly(octyl)][Leu(3R-OH)][Aib]LL[Aib][Aib][βAla]-{NH((S)CH(Me)CH2NMe2)}) | 0.1 | 45.3 | 0.9 | 142 | 1.1 | 338
CCCCCCCC[C@H](NC(=O)[C@@H](NC(=O)[C@@H]1CCCN1C(=O)/C=C/[C@@H](C)CC)[C@H](O)C(C)C)C(=O)NC(C)(C)C(=O)N[C@@H](CC(C)C)C(=O)N[C@@H](CC(C)C)C(=O)NC(C)(C)C(=O)NC(C)(C)C(=O)NCCC(=O)N[C@@H](C)CN(C)C [Compound 5560, (2S)-N-(1-{[(1S)-1-{[(1S)-1-{[1-({1-[(2-{[(2S)-1-(dimethylamino)propan-2-yl]carbamoyl}ethyl)carbamoyl]-1-methylethyl}carbamoyl)-1-methylethyl]carbamoyl}-3-methylbutyl]carbamoyl}-3-methylbutyl]carbamoyl}-1-methylethyl)-2-[(2S,3R)-3-hydroxy-4-methyl-2-{[(2S)-1-[(2E,4S)-4-methylhex-2-enoyl]pyrrolidin-2-yl]formamido}pentanamido]decanamide] ({Hexenoyl(2E,4S-Me)}-P[Leu(3R-OH)][Gly(octyl)][Aib]LL[Aib][Aib][βAla]-{NH((S)CH(Me)CH2NMe2)}) | 0.2 | 34.5 | 0.8 | 25.4 | 1.1 | 791
CCCCCCCC[C@H](NC(=O)[C@@H]1CCCN1C(=O)/C=C/[C@@H](C)CC)C(=O)N[C@@H](CC(C)C)C(=O)NC(C)(C)C(=O)N[C@@H](CC(C)C)C(=O)N[C@@H](CC(C)C)C(=O)NC(C)(C)C(=O)NC(C)(C)C(=O)NCCC(=O)N[C@@H](C)CN(C)C [Compound 5562, (2S)-N-[(1S)-1-[(1-{[(1S)-1-{[(1S)-1-{[1-({1-[(2-{[(2S)-1-(dimethylamino)propan-2-yl]carbamoyl}ethyl)carbamoyl]-1-methylethyl}carbamoyl)-1-methylethyl]carbamoyl}-3-methylbutyl]carbamoyl}-3-methylbutyl]carbamoyl}-1-methylethyl)carbamoyl]-3-methylbutyl]-2-{[(2S)-1-[(2E,4S)-4-methylhex-2-enoyl]pyrrolidin-2-yl]formamido}decanamide] ({Hexenoyl(2E,4S-Me)}-P[Gly(octyl)]L[Aib]LL[Aib][Aib][βAla]-{NH((S)CH(Me)CH2NMe2)}) | 0.5 | 40.6 | 1.3 | 22.3 | 0.3 | 459
CC(C)C[C@H](NC(=O)[C@H](CCC1CCCCC1)NC(=O)[C@@H]1CCCN1C(=O)c1ccc(F)cc1)C(=O)NC(C)(C)C(=O)N[C@@H](CC(C)C)C(=O)N[C@@H](CC(C)C)C(=O)NC(C)(C)C(=O)NC(C)(C)C(=O)NCCC(=O)N[C@@H](C)CN1CCOCC1 [Compound 6028, (2S)-2-[(2S)-2-{2-[(2S)-2-[(2S)-4-cyclohexyl-2-{[(2S)-1-(4-fluorobenzoyl)pyrrolidin-2-yl]formamido}butanamido]-4-methylpentanamido]-2-methylpropanamido}-4-methylpentanamido]-4-methyl-N-[1-methyl-1-({1-methyl-1-[(2-{[(2S)-1-(morpholin-4-yl)propan-2-yl]carbamoyl}ethyl)carbamoyl]ethyl}carbamoyl)ethyl]pentanamide] ({Benzoyl(4-F)}-P[hCha]L[Aib]LL[Aib][Aib][βAla]-X17) | 41900 | 230 | 12500 | 418 | 26.3 | 

Source: patent EP3345917A1, “ANTIPROTOZOAL COMPOUNDS” (Bacoba AG, priority 2017, dated 2018)
